Where two headings read alike, the source gives them in different places.
How the values were obtained:
[1] = cited from earlier work
[2] = system: myo-inositol oxygenase (MIO); test: Small-scale biocatalytic conversion: buffer concentration and ionic strength; type: biochemical, Cryptococcus neoformans; conditions: for increase in initial reaction rate and final concentration of D-glucuronic acid produced: salts concentrations higher than 0.25 M
Protocol: A small-scale protocol was used to develop the biocatalytic production of glucuronic acid from myo-inositol. Cells containing myo-inositol oxygenase were grown as described before, harvested by centrifugation and washed in 50 mM MOPS buffer at pH 7.0. The cell paste was kept frozen until use. To prepare the enzyme for the reaction, the cells were resuspended in 2 volumes of the same buffer at pH 6.5 and broken using either a French press or a MICROFLUIDICS® homogenizer (MICROFLUIDIZER® cell disruptor M-110L, available from Microfluidics, MA). Breakage was accomplished by 2 to 3 passes at 20,000 psi, and was followed visually using a microscope. The cell extract was centrifuged for 20 minutes at 15,000 rpm to remove the cell debris. Total soluble protein was measured in the clear supernatant, as described in Example 1. The cell extract was diluted to a protein concentration of 75 mg/ml and the enzyme was incubated for 1 hr on ice in the presence of ascorbic acid and ferrous ammonium sulfate at concentrations of 5 and 2 mM, respectively.
The enzyme reaction was carried out in 0.7 L reactors with temperature, pH, agitation and dissolved oxygen control. A solution of 50 g/L myo-inositol in 50 mM MOPS at pH 6.5 (200 mL) was used in the standard protocol. Temperature was controlled at 15° C. Pure air, air enriched with oxygen or pure oxygen were used to supply enough oxygen for the reaction to proceed. The air was supplied either in the headspace of the reactor or was sparged into the liquid. The formation of glucuronic acid results in a decrease in the pH of the broth. To keep the pH at the desired value, pH 6.5, the acid was neutralized with 4 N NaOH. The enzyme solution was added to reach an initial concentration of 2 g soluble protein/L. The reaction proceeded very fast immediately after the enzyme addition and the rate decayed over time. Different experiments varied the number and/or amount of enzyme additions. The progress of the reaction was followed by HPLC analysis.
Effect of buffer concentration and ionic strength. The effect of the buffer concentration was tested with the described protocol of Example 6, and included testing without any buffer, using 5 mM MOPS, and using 50 mM MOPS. No difference in the performance of the reaction was observed, either in reaction rate or in extent of reaction, as long as good pH control was provided.
Additionally, further studies on increasing the ionic strength of the broth by adding salts, using either NaCl or sodium glucuronate at 0.25 M and 0.5 M, or mixes of both, indicated better enzyme performance at higher ionic strength.

[3] = system: myo-inositol oxygenase (MIO); test: Conversion rate additives in the myo-inositol conversion mixture; type: biochemical, Cryptococcus neoformans; conditions: additive in conversion mixture
Description: Although the conversion rate increased, the final conversion percentages were similar to conversion mixtures without those same additives.

[4] = Freeze-thaw and frozen storage stability of MIO activity; conditions: continuous storage at −80° C. for several months
Description: A lysed cell mixture may be added either purified or unpurified into a mixture for MIO activation. If desired, samples containing MIO may be stored prior to use. Samples containing MIO may be stored at low temperatures for short periods of time or may be frozen for longer periods of storage without significant MIO degradation. […] Additional freeze-thaw cycles, however, did reduce MIO activity.

## N[C@@H](CS)C(=O)O [Cysteine]
[1]; pH 7
  reduction potential: −230 mV

## O=C1O[C@H]([C@@H](O)CO)C(O)=C1O [L-ascorbic acid]
[1]; 25° C.
  reduction potential: +54 mV
[1]; 30° C.
  reduction potential: +51.2 mV

## O=S(=O)(O)CCCN1CCOCC1 [MOPS, 3-[N-morpholino]propanesulfonic acid]
[2]; no buffer, 5 mM and 50 mM MOPS, with good pH control
  effect of buffer concentration on reaction rate and extent of reaction: No difference

## [Cl-].[Na+] [NaCl]
[2]
  increase in initial reaction rate and final concentration of D-glucuronic acid produced: ~50%

## O=C[C@H](O)[C@@H](O)[C@H](O)[C@H](O)C(=O)[O-].[Na+] [sodium glucuronate, reference compound]
[2]; high concentrations
  inhibition of the reaction: Some inhibition
[2]
  increase in initial reaction rate and final concentration of D-glucuronic acid produced: ~50%

## Bovine serum albumin: protein tested as conversion rate additive
[3]
  effect on MIO specific activity and conversion rate: minimal effect

## Superoxide dismutase
[3]
  effect on MIO specific activity and conversion rate: slightly increase

## catalase
[3]; after 6.5 hours
  improvement in conversion: 18%

B1: MIO: Fe(II) containing enzyme that converts myo-inositol to D-glucuronic acid using oxygen (protein, UniProt Q9UGB7 1-285, looked up)
Inositol oxygenase: MKVTVGPDPSLVYRPDVDPEVAKDKASFRNYTSGPLLDRVFTTYKLMHTHQTVDFVRSKHAQFGGFSYKKMTVMEAVDLLDGLVDESDPDVDFPNSFHAFQTAEGIRKAHPDKDWFHLVGLLHDLGKVLALFGEPQWAVVGDTFPVGCRPQASVVFCDSTFQDNPDLQDPRYSTELGMYQPHCGLDRVLMSWGHDEYMYQVMKFNKFSLPPEAFYMIRFHSFYPWHTGRDYQQLCSQQDLAMLPWVREFNKFDLYTKCPDLPDVDKLRPYYQGLIDKYCPGILSW
[4]
  MIO activity on long-term storage: remained stable

Source: patent US7923231B2, “Production of glucuronic acid using myo-inositol oxygenase from cryptococcus neoformans” (Cargill, Incorporated, priority 2004, dated 2011)
